Target: farnesyl protein transferase
Assay: Inhibition of farnesyl protein transferase (test of WO 95/10514)
Format: biochemical
Conditions: percent inhibition relative to DMSO vehicle control, IC50 estimated
Source text: The compounds of the invention can be tested by standard methods, for example by those published in published PCT application WO 95/10514 published Apr. 20, 1995 (starting at page 61), the disclosure of which is hereby incorporated herein by reference. Particularly relevant assays and studies include In vitro enzyme assays, Cell-Based Assays, Cell Mat Assays, and In Vivo Anti-Tumor Studies.
Such Assays and Studies indicate that compounds of the Formula I above are selective inhibitors of Ras-FPT and can be used as anti-tumor agents. The following Table presents IC50 values obtained in the test for Inhibition of farnesyl protein transferase, reported in published PCT application WO 95/10514. Percent inhibition was calculated relative to the DMSO vehicle control, and an IC50 value was estimated.

Compound | IC50 [µM]
CC1(C)c2cccnc2C(=C2CCN(C(=O)Cc3cc[n+]([O-])cc3)CC2)c2ccc(Cl)cc2S1(=O)=O [Example 30, 4-(8-Chloro-5,11-dihydro-5,5-dimethyl-[1]benzothiepino[4,3-b]pyridin-11-ylidene)-1-(4-pyridine-acetyl)piperidine-6,6-dioxide N1-oxide] | > 1.1
O=C(Cc1ccncc1)N1CCN(C2c3ccc(Cl)cc3[S+]([O-])Cc3cccnc32)CC1 (centres unmarked) [Example 31, 4-(8-Chloro-5,11-dihydro-[1]benzothiepino[4,3-b]pyridin-11-yl)-1-(4-pyridine-acetyl)piperazine-6-oxide] | 5
CN1Cc2cccnc2C(N2CCN(C(=O)Cc3cc[n+]([O-])cc3)CC2)c2ccc(Cl)cc21 (centres unmarked) [Example 34] | 2.7
CN1Cc2cccnc2C(N2CCN(C(=O)Cc3ccncc3)CC2)c2ccc(Cl)cc21 (centres unmarked) [Example 35, 4-(8-Chloro-6,11-dihydro-6-methyl-5H-pyrido[3,2-c][1]benzazepin-11-yl)-1-(4-pyridine-acetyl)piperazine] | 0.84
CN1Cc2cccnc2C(N2CCN(C(=O)CC3CCN(C(=O)OC(C)(C)C)CC3)CC2)c2ccc(Cl)cc21 (centres unmarked) [Example 38, 1,1-Dimethylethyl 4-[2-[4-(8-chloro-6,11-dihydro-6-methyl-5H-pyrido[3,2-c][1]benzazepin-11-yl)-1-piperazinyl]2-oxoethyl]-1-piperidine-carboxylate] | > 3.6
CN1Cc2cccnc2C(N2CCN(C(=O)CC3CCNCC3)CC2)c2ccc(Cl)cc21 (centres unmarked) [Example 39, 4-(8-Chloro-6,11-dihydro-6-methyl-5H-pyrido[3,2-c][1]benzazepin-11-yl)-1-(4-piperidine-acetyl)piperazine] | > 1.3

More lines, now with the values ahead:

IC50 [µM] | Compound
> 1.1 | NC(=O)N1CCC(CC(=O)N2CCC(=C3c4ccc(Cl)cc4S(=O)(=O)Cc4cccnc43)CC2)CC1 [Example 29, 4-[2-[4-(8-Chloro-5,11-dihydro-[1]benzothiepino[4,3-b]pyridin-11-ylidene)-1-piperidinyl]-2-oxoethyl]-1-piperidinecarboxamide-6,6-dioxide]
> 0.38 | NC(=O)N1CCC(CC(=O)N2CCN(C3c4ccc(Cl)cc4[S+]([O-])Cc4cccnc43)CC2)CC1 (centres unmarked) [Example 32, 4-[2-[4-(8-Chloro-5,11-dihydro-[1]benzothiepino[4,3-b]pyridin-11-yl)-1-piperazinyl]-2-oxoethyl]-1-piperidinecarboxamide 6-oxide]
> 0.42 | N#CC=C(c1ccc(F)cc1)N1CCC(=C2c3ccc(Cl)cc3SCc3cccnc32)CC1 [Example 33, 3-[4-(8-Chloro-5,11-dihydro-[1]benzothiepino[4,3-b]pyridin-11-ylidene)-piperidin-1-yl]-3-(4'-fluorophenyl)-2-propene-nitrile]
1.1 | CSC(=NC#N)N1CCN(C2c3ccc(Cl)cc3N(C)Cc3cccnc32)CC1 (centres unmarked) [Example 36, Methyl 4-(8-chloro-6,11-dihydro-6-methyl-5H-pyrido[3,2-c][1]benzazepin-11-yl)-N-cyano-1-piperazinecarboximidothioate]
0.14 | CN1Cc2cccnc2C(N2CCN(C(=NCc3ccncc3)NC#N)CC2)c2ccc(Cl)cc21 (centres unmarked) [Example 37, 4-(8-Chloro-6,11-dihydro-6-methyl-5H-pyrido[3,2-c][1]benzazepin-11-yl)-N-cyano-N'-(4-pyridinylmethyl)-1-piperazine-carboximidamide]

From patent publication US6130229A, “Tricyclic compounds having activity as RAS-FPT inhibitors” (Schering Corporation, priority 1997, dated 2000)
